Data on six compounds can be found in PubChem BioAssay AID743097 (Vanderbilt Specialized Chemistry Center, 2013).

Active and inactive are the calls of the source. No rule for the calls is given here.

The assay has as its target Muscarinic acetylcholine receptor M1 (Homo sapiens) (UniProt P11229). Briefly: potentiation of ACh response at M1 – cell-based, human M1, selectivity assay for M5 PAM discovery project (AID 743097). The note with it: CHO-K1 hM1, Fluo-4 calcium flux, ACh EC20 potentiation. For orientation: A change in cytosolic calcium serves as a functional read-out for many receptors and channels.

Sequence of Muscarinic acetylcholine receptor M1 (Homo sapiens) (P11229 whole entry, looked up): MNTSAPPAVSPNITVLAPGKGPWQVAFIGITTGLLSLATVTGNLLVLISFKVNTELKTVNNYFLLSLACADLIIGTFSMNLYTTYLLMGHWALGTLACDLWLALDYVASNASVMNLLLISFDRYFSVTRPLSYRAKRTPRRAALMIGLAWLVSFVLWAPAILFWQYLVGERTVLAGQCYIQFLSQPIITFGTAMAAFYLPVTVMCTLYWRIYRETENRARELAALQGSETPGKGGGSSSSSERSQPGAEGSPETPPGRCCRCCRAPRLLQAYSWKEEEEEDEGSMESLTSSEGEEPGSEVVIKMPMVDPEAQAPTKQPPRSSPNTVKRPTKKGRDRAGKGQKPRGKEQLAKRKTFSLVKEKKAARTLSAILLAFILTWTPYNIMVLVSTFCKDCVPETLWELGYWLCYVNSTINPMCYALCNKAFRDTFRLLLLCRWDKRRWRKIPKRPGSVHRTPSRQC

One may read the EC50 as the concentration that produces a half-maximal response. For the compound `CCN(Cc1ccccc1Cl)C(=O)C1CCN(S(=O)(=O)c2ccc3cn[nH]c3c2)CC1`, the concentration for a half-maximal effect (EC50) is 3.97 µM. On to `CCN(C(=O)C1CCN(S(=O)(=O)c2ccc(OC)cc2)CC1)[C@H](C)c1ccccc1`, for which the “% of ACh max response” value (at 30 µM (top of the series)) was “inactive”. In the case of `CCN(Cc1ccccc1C(F)(F)F)C(=O)C1(F)CCN(S(=O)(=O)c2ccc3[nH]ncc3c2)CC1`, the concentration for a half-maximal effect (EC50) is 4.84 µM.

As to `CCN(C(=O)C1CCN(S(=O)(=O)c2ccc3[nH]ncc3c2)CC1)[C@H](C)c1ccccc1`, the EC50 is 5.28 µM. Same read-out and setting: the value for `CCN(Cc1ccccc1C(F)(F)F)C(=O)C1CCN(S(=O)(=O)c2ccc3[nH]ncc3c2)CC1` was 6.99 µM; that for `CCN(Cc1ccccc1Cl)C(=O)C1CCN(S(=O)(=O)c2ccc3[nH]ncc3c2)CC1` was 2.52 µM.
